Measured values as given in patent US10106523B2, “Amide compound” (ASTELLAS PHARMA INC., priority 2014, dated 2018).

Experiments:
[1] = target: T1, rat EP4 receptor (Rattus norvegicus, UniProt P43114); assay: Rat EP4 receptor antagonistic action by measurement of cAMP amount in CHO-K1 cells; type: cell-based; design: expressed in transfected cells; conditions: PGE2 100 nmol/L, CHO-K1 cells stably expressing rat EP4, average of two experiments; read-out: IC50 value with respect to the cAMP production action by PGE2 in rat EP4 receptor expressing CHO-K1 cells
T1 sequence (P43114 whole entry): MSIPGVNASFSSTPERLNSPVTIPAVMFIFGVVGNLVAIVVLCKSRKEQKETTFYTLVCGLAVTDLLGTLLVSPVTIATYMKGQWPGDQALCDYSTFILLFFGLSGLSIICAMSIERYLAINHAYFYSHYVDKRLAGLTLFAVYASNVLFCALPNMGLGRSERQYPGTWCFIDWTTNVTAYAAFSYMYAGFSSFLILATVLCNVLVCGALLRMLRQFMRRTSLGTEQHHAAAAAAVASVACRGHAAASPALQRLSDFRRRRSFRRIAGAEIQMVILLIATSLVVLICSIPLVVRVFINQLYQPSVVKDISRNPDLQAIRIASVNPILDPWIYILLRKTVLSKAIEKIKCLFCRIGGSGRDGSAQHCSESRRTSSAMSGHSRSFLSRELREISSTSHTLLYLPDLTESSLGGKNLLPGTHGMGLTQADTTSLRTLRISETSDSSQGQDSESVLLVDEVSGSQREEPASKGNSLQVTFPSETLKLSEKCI
Procedure: Test Example 4: Evaluation Test of Rat EP4 Receptor Antagonistic Action by Measurement of cAMP Amount
Construction of Vector Expressing Rat EP4 Receptor:
The construction was carried out in the same manner as in Test Example 1.
Construction of Cells Stably Expressing Rat EP4 Receptor:
The expression vector of a rat EP4 receptor was transfected into a CHO—K1 cell (ATCC No.: CCL-61). The transfection was carried out according to an appended instruction, using Lipofectoamine (registered trademark) 2000 reagent (Invitrogen Inc.). After the transfection, the cells were cultured in an α-MEM culture medium (product No. 12571063, Invitrogen Inc.) containing G418 (Nakalai Tesque Inc.) to acquire a drug-resistant clone.
Cell Culture and Treatment with Compound:
CHO—K1 cells stably expressing a rat EP4 were seeded in 96-well plates at 0.5×10^4 cells/100 μL and cultured overnight. […]
The cAMP amount in the cell lysate was measured using a cAMP HiRange kit. […] After incubation, the fluorescence intensity of the cryptate at 620 nm and the fluorescence intensity of the d2 at 665 nm were measured using ARVO1420. The cAMPs of 280, 70, 17.5, 4.38, 1.09, 0.27, and 0.068 nmol/L were added to each well to create a standard curve and the fluorescence intensity was measured as described above. […] An average value was calculated from two experiment results.

[2] = target: T1, rat EP4 receptor; assay: In vivo rat EP4 receptor antagonistic action (plasma TNF-α after LPS and EP4 agonist ONO-AE1-437); design: from tissue; host or cells: whole animal (SD rat); conditions: SD rats, 0.03 mg/kg po, ONO-AE1-437 0.01 mg/kg sc, LPS 0.01 mg/kg iv
Procedure: Test Example 5: Evaluation Test of In Vivo Rat EP4 Receptor Antagonistic Action
SD rats (male, 6-week old) under non-fasting conditions were used for the test. A test compound dissolved in a mixed solution of PEG 400: 20% Tween 80: 1 mol/L aqueous NaHCO3 solution=1:4:5 was orally administered (po) to the rat at a dose of 0.03 mg/kg (5 mL/kg). After 1 hour, an active metabolite (ONO-AE1-437 (CAS No. 256382-23-7)) of an EP4 agonist ONO-4819 dissolved in physiological saline was subcutaneously administered (sc) to the back of the rat at a dose of 0.01 mg/kg (5 mL/kg). After 30 minutes, Lipopolysaccharide (LPS, 0.01 mg/kg) was administered to the tail vein (2 mL/kg), and after 60 minutes, about 0.5 mL of blood was collected in a heparin-containing tube under anesthesia. The blood sample was centrifuged (1000×g, 10 minutes, 4° C.) to separate the plasma. The TNF-α concentration in the rat plasma was measured by an ELISA kit (DuoSet ELISA, R&D Systems). An inhibitory rate of the test compound group (n=5) with respect to the TNF-α production inhibitory action by the EP4 agonist was calculated by taking the TNF-α concentration of the group (n=5) not treated with ONO-AE1-437 as 100% and taking the TNF-α concentration of the group (n=5) treated with ONO-AE1-437 as 0%.

For `Cc1nn(Cc2cc3ccccc3cn2)c(C(=O)N[C@@H](C)c2ccc(C(=O)O)cc2)c1Br` [Compound A, 4-[(1S)-1-({[4-bromo-1-(isoquinolin-3-ylmethyl)-3-methyl-1H-pyrazol-5-yl]carbonyl}amino)ethyl]benzoic acid], the IC50 [1] was 1.04 nM and the “Inhibition of the TNF-α production inhibitory action of the EP4 agonist ONO-AE1-437” value [2] was 38%.
